Values of other authors as cited in patent publication US20100047343A1, “MULTIPARTICULATE FORMULATION HAVING TRAMADOL IN IMMEDIATE AND CONTROLLED RELEASE FORM” (The University of Kansas, priority 2006, published 2010).
Structures can show the parent of a compound that is named as a salt. Where two headings read alike, the source gives them in different places.

Assays:
[1] = for accumulation: multiple dose treatment with tramadol HCl; for half-life: single oral dose of 100 mg
[2] = single oral dose of rapid release tramadol HCl (100 mg)
[3] = after oral administration of ULTRAM

Structure (SMILES)	bioavailability [1, 3]	time to peak serum concentrations [1, 3]	solubility in water (24° C.)	density of saturated solution (37° C.)	solubility in water (37° C.)	viscosity (sat'd. sol.) (37° C.)	duration of the analgesic effect [2]	accumulation [1]	half-life [1]
COc1cccc(C2(O)CCCCC2CN(C)C)c1 (centres unmarked) [tramadol HCl]	68%	≤ 2 h	790 mg/mL	1.1079	840 mg/mL	86.5 cp	about 6 hours		
COc1cccc(C2(O)CCCCC2CN(C)C)c1 (centres unmarked) [tramadol]								approximately 2 fold	5.1 h
CN(C)C[C@H]1CCCC[C@]1(O)c1cccc(O)c1 [M1 derivative]								approximately 2 fold	9 h
